Results reported in patent US4626283A, “Corrosion and marine growth inhibiting compositions” (Engelhard Corporation, priority 1985, dated 1986).
Values joined by “and” are separate entries in the source; they are usually repeats but may differ in a detail not shown here. Equal values may be shown once. Read-outs that look alike come from different tables or passages of the source.

Tests used:
[1] = water
[2] = Primary skin irritation; format: in vivo; conditions: 0.5 g in saline paste; for Skin irritation rating: in words
[3] = Electrochemical testing (Tafel Plot) of corrosion current and corrosion potential
[4] = Draize eye irritation; format: in vivo; conditions: 100 mg; for Eye irritation rating: in words
[5] = Acute oral toxicity; format: in vivo; conditions: 5 g/kg in corn oil
[6] = Salt spray test, alkyd formulations (Example V, FIG. 1)
[7] = overall conclusion in words
[8] = format: physicochemical; conditions: simulated rain solution saturated with the pigment; electrolyte pH about 4.2
[9] = Salt spray test, alkyd formulations (Example VI, FIG. 3); conditions: alkyd formulation, ASTM B117-73, in words
Procedure: One coat of paint was applied using a Henry K. Gardner Laboratory draw-down, with either a 6 mil or 8 mil draw-down blade. The draw-down speed was 1 inch per second. Such coat of paint was allowed to cure for two weeks under ambient conditions, in the case of both alkyd and latex paints. The dried coating thickness was measured with Elcometer Coating thickness gauge, Model #150/-FNIE. Acceptable thicknesses of the cured film were 2.5-3.5 mils.
Stormer viscosity (ASTM D562-55) for all alkyd paints was greater than 90, and for all latex paints was greater than 80.

[10] = Tafel Plot, simulated acid rain saturated with pigment, SAE-1020 steel, 5.16 square centimeters
[11] = against saturated calomel electrode, simulated acid rain saturated with pigment

NCCN.O=C([O-])c1ccc(C(=O)[O-])cc1.[Zn+2] [Compound 19, Zinc Terephthalate Ethylenediamine]
Solubility [1]: .66 | Solubility description [1]: SS (key: PINS: practically insoluble (<.1 g/100cc H2 O); SS: slightly soluble (.1 to 1 g/100cc H2 O); MS: moderately soluble)

Zinc Sulfonyldiphenolate Ethylenediamine [Compound 15]
Skin irritation score [2]: 0.08 | Skin irritation rating [2]: non-irritating | Corrosion current (Icorr) [3]: 170 microamps and > 100 microamps | Corrosion potential (Ecorr) [3]: -592 millovolts | Eye irritation score [4]: 31.0 | Eye irritation rating [4]: severely irritating

Zinc Dibasate Diethylamine [Compound 9]
Corrosion current (Icorr) [3]: 30 microamps | Corrosion current (Icorr), second test [3]: 177 microamps and > 100 microamps | Corrosion potential (Ecorr) [3]: -570 millovolts | Oral acute toxicity, mortality [5]: 0% | Eye irritation score [4]: 5.5 | Eye irritation rating [4]: mildly irritating

Zinc Thiodiphenolate Ethylenediamine [Compound 14]
Corrosion current (Icorr) [3]: 52.5 microamps | Corrosion potential (Ecorr) [3]: -570 millovolts | Effect of kaolin on salt spray performance [6]: enhanced the performance | Eye irritation score [4]: 53.7 | Eye irritation rating [4]: extremely irritating | Toxicity characteristics [7]: unacceptable toxicity characteristics

Zinc Dibasate Pyridine [Compound 23]
Corrosion current (Icorr) [3, 10]: 60 microamps | Corrosion potential (Ecorr) [3, 11]: -550 millovolts | pH [8]: 7.0

NCCN.O=C([O-])CCCCCCCC(=O)[O-].[Zn+2] [Compound 5, Zinc Azelate Ethylenediamine]
Solubility [1]: .21 | Solubility description [1]: SS (key: PINS: practically insoluble (<.1 g/100cc H2 O); SS: slightly soluble (.1 to 1 g/100cc H2 O); MS: moderately soluble) | Corrosion current (Icorr) [3, 10]: 82 microamps | Corrosion potential (Ecorr) [3, 11]: -667 millovolts | Effect of kaolin on salt spray performance ([6]; alkyd formulation, combination with kaolin, in words): anomolously reduced the performance

CC(N)CN.O=C([O-])CCCCC(=O)[O-].[Zn+2] [Compound 4, Zinc Adipate Propylenediamine]
Salt spray durability, comparison [9]: superior to "Zinc Yellow" (zinc chromate) in salt spray durability

Zinc Quinizarinate Ethylenediamine [Compound 22]
Corrosion current (Icorr) [3, 10]: 84 microamps | Corrosion potential (Ecorr) [3, 11]: -570 millovolts

Zinc Thiodiphenolate Propylenediamine [Compound 20]
Corrosion current (Icorr) [3]: 46 microamps | Corrosion potential (Ecorr) [3]: -560 millovolts

NCCN.O=C([O-])CCCC(=O)[O-].[Zn+2] [Compound 2, Zinc Glutarate Ethylenediamine]
Solubility [1]: .16 | Solubility description [1]: SS (key: PINS: practically insoluble (<.1 g/100cc H2 O); SS: slightly soluble (.1 to 1 g/100cc H2 O); MS: moderately soluble)

Zinc Dibasate Propylenediamine [Compound 8]
Solubility [1]: .16 | Solubility description [1]: SS (key: PINS: practically insoluble (<.1 g/100cc H2 O); SS: slightly soluble (.1 to 1 g/100cc H2 O); MS: moderately soluble)

NCCN.O=C([O-])CCCCCCCCC(=O)[O-].[Zn+2] [Compound 6, Zinc Sebacate Ethylenediamine]
Skin irritation score [2]: 0.13 | Skin irritation rating [2]: minimally irritating | Corrosion current (Icorr) [3]: 170 microamps and > 100 microamps | Corrosion potential (Ecorr) [3]: -462 millovolts | Eye irritation score [4]: 37.2 | Eye irritation rating [4]: severely irritating

NCCN.O=C([O-])c1ccccc1C(=O)[O-].[Zn+2] [Compound 17, Zinc Phthalate Ethylenediamine]
Solubility [1]: .02 | Solubility description [1]: PINS (key: PINS: practically insoluble (<.1 g/100cc H2 O); SS: slightly soluble (.1 to 1 g/100cc H2 O); MS: moderately soluble) | Skin irritation score [2]: 0.00 | Skin irritation rating [2]: non-irritating | Corrosion current (Icorr) [3]: 83 microamps

NCCN.O=C([O-])CCCCC(=O)[O-].[Zn+2] [Compound 3, Zinc Adipate Ethylenediamine]
Skin irritation score [2]: 0.42 | Skin irritation rating [2]: minimally irritating | Corrosion current (Icorr) [3, 10]: 78 microamps | mortality ([5]; in vivo, 5000 mg/kg): 0% | Salt spray durability, comparison [9]: superior to "Zinc Yellow" (zinc chromate) in salt spray durability | Eye irritation score [4]: 19.0 | Eye irritation rating [4]: moderately-irritating

NCCN.O=C([O-])CCCCCCCCCCC(=O)[O-].[Zn+2] [Compound 11, Zinc Dodecanedioate Ethylenediamine]
Solubility [1]: .015 | Solubility description [1]: PINS (key: PINS: practically insoluble (<.1 g/100cc H2 O); SS: slightly soluble (.1 to 1 g/100cc H2 O); MS: moderately soluble) | Corrosion current (Icorr) [3, 10]: 130 microamps and > 100 microamps | Salt spray durability, comparison [9]: superior to "Zinc Yellow" (zinc chromate) in salt spray durability

CCNCC.O=C([O-])CCCCCCCCCCC(=O)[O-].[Zn+2] [Compound 12, Zinc Dodecanedioate Diethylamine]
Corrosion current (Icorr) [3]: 197 microamps and > 100 microamps

Zinc Dibasate-1,2-Diaminopropane [8^(3)]
Corrosion current (Icorr) [3, 10]: 90 microamps | Corrosion potential (Ecorr) [3, 11]: -570 millovolts | pH [8]: 7.55

O=C([O-])CCCCCCCCCCC(=O)[O-].OCCN(CCO)CCO.[Zn+2] [Compound 10, Zinc Dibasate Triethanolamine]
Corrosion current (Icorr) [3]: 93 microamps | Corrosion potential (Ecorr) [3]: -580 millovolts | Salt spray durability, comparison [9]: superior to "Zinc Yellow" (zinc chromate) in salt spray durability

Zinc Dibasate Dimethylamine [Compound 21]
Corrosion current (Icorr) [3]: 82 microamps | Corrosion potential (Ecorr) [3]: -610 millovolts

Zinc Dibasate Piperidine [Compound 24]
Corrosion current (Icorr) [3]: 40 microamps | Corrosion potential (Ecorr) [3]: -610 millovolts

NCCN.O=C([O-])c1cccc(C(=O)[O-])c1.[Zn+2] [Compound 18, Zinc Isophthalate Ethylenediamine]
Solubility [1]: 1.13 | Salt spray durability, comparison [9]: superior to "Zinc Yellow" (zinc chromate) in salt spray durability
